Read-outs that look alike come from different tables or passages of the source.
Columns and labels:
HeLa cells = assay: HeLa cell viability (PrestoBlue) assay, 72 h; assay type: cell-based, human; details: for GI50 FK866 with carbazole/GI50 FK866 / GI50 PTX/GI50 PTX with carbazole: ratio at the highest noncytotoxic dose of carbazole analog; for GI50 FK866 with carbazole/GI50 FK866: readout of NAMPT activation; for GI50 PTX/GI50 PTX with carbazole: synergy with PTX; for fold reduction of GI50 by addition of 12 μM Carba1: drug with 12 μM Carba1 vs drug alone
Method: The human HeLa cell line was tested negative for mycoplasma contamination. HeLa cells were grown in RPMI 1640 medium supplemented with penicillin/streptomycin (100 μg/ml) and 10% FBS and maintained in a humidified incubator at 37°C and 5% CO2.
Cell viability was analyzed using the colorimetric PrestoBlue assay. Cells were seeded in 96-well microplates at a density of 7500 cells per well, allowed to adhere for 24 hours, and treated for 72 hours with either DMSO or drugs at indicated concentrations. PrestoBlue (10 μl) was then added to each well, followed by a 30-min incubation. Fluorescence was measured using a FLUOstar Optima microplate reader (excitation, 544 nm; emission, 580 nm; BMG Labtech).

adult mouse DRG neurons = assay: Axonal degeneration index in dissociated adult mouse DRG neurons; details: DIV 12 neurons, 72 h; Carba1 12 μM, PTX 50 nM, Cis 10 μM, Bort 100 nM
Method: After 4 days in vitro (DIV), at least 30% of medium was changed, and 10 μM AraC (cytosine β-D-arabino furanoside) was added to suppress nonneuronal growth. […] Neurons were fixed with 4% paraformaldehyde (PFA), washed with PBS, permeabilized with PBS–0.01% Triton X-100 for 15 min, and blocked with PBS–10% FBS for 1 hour before being stained overnight at 4°C with neurofilament antibody. Following PBS washes, secondary antibody (goat anti-chicken Alexa Fluor 488) was applied for 2 hours at room temperature (R.T.). Following additional PBS washes, coverslips were mounted with Fluoromount-G.
Images of random fields of dissociated adult DRG neurons, immunostained with antineurofilament or anti-TUBB3 antibodies, were captured using a 20× objective lens (Olympus IX81) and a Sensicam QE monochrome camera (Cooke Corporation). Degeneration masks were generated on the basis of the method described by Gerdts et al. ([66]). Axonal degeneration was quantified by measuring the total axonal area and fragmented axonal area in the same field, using degeneration masks as shown in fig. […] Images were processed in Fiji using global autothresholding, binarization, and the particle analyzer module to detect fragments (20 to 10,000 pixels), as previously described ([17]). The degeneration index was calculated as the ratio of fragmented axonal area to total axonal area.

[1] = cell viability, compound alone, read-out: GI50
[2] = Homo sapiens, HeLa cells, 72 h, PrestoBlue, drug applied alone, read-out: GI50, drug alone

Row | SMILES | GI50 (HeLa cells; [1]) | GI50 FK866 with carbazole/GI50 FK866 (HeLa cells) | GI50 PTX/GI50 PTX with carbazole (HeLa cells) | other results
1 | N.N.[Cl][Pt][Cl] [Cis, cisplatin, reference compound] |  |  |  | GI50 (HeLa cells; HeLa cells, 72 h, PrestoBlue, drug applied alone, read-out: GI50, drug alone): 0.167 ± 0.0308 µM
2 | Cc1cc(-n2ccc(CO)c2)c(C)c2c1[nH]c1ccc(Cl)cc12 [Compound 8] | 1 µM | 1 | 3.8 | 
3 | Cc1cc(-n2c(C)ccc2C)c(C)c2c1[nH]c1ccc(Br)cc12 [Compound 9] | > 25 µM | 0.99 | 1 | 
4 | CC(=O)O[C@@]12CO[C@@H]1C[C@H](O)[C@@]1(C)C(=O)[C@H](O)C3=C(C)[C@@H](OC(=O)[C@H](O)[C@@H](NC(=O)OC(C)(C)C)c4ccccc4)C[C@@](O)([C@@H](OC(=O)c4ccccc4)[C@H]21)C3(C)C [DTX, docetaxel, reference compound] |  |  |  | fold reduction of GI50 by addition of 12 μM Carba1 (HeLa cells; HeLa cells, 72 h): 3.8 fold; GI50 (HeLa cells; [2]): 0.0011 ± 0.0002 µM
5 | CCOC(=O)Oc1ccc2[nH]c3c(C)cc(-n4c(C)ccc4C)c(C)c3c2c1 [Compound 15] | > 25 µM | 1.1 | 1 | 
6 | Cc1cc(-n2ccc(C=O)c2)c(C)c2c1[nH]c1ccc(Cl)cc12 [Compound 13] | 1 µM | 1 | 4.4 | 
7 | CC(C)C[C@H](NC(=O)[C@H](Cc1ccccc1)NC(=O)c1cnccn1)B(O)O [Bort, bortezomib, reference compound] |  |  |  | GI50 (HeLa cells; [2]): 0.0359 ± 0.0037 µM; GI50 (HeLa cells; Homo sapiens, HeLa cells, 72 h, with 12 μM Carba1, read-out: GI50, drug in combination with Carba1): 0.04 ± 0.0033 µM; axonal fragmentation / degeneration, agent alone (adult mouse DRG neurons): induced significant axonal fragmentation
8 | CCc1cccc2c1[nH]c1c(C)cc(-n3cccc3)c(C)c12 [Compound 3] | > 25 µM | 1.5 | 1.5 | 
9 | CCNCc1ccn(-c2cc(C)c3[nH]c4ccc(Cl)cc4c3c2C)c1 [Compound 7] | 10.3 µM | 1 | 0.77 | 
10 | COc1cccc(NCC(F)Cn2c3ccc(Cl)cc3c3c(C)c(-n4cccc4)cc(C)c32)c1 (centres unmarked) [Compound 16] | > 25 µM | 0.98 | 1.2 | 
11 | Cc1cc(-n2cccc2)c(C)c2c1[nH]c1cc(Cl)ccc12 [Compound 4] | 15 µM | 0.93 | 1.8 | 
12 | Cc1cc(-n2ccc(C=O)c2)c(C)c2c1[nH]c1ccc(Br)cc12 [Compound 14] | 1.2 µM | 1 | 2.5 | 
13 | Cc1cc(-n2cccc2)c(C)c2c1[nH]c1ccc(Br)cc12 [Compound 2] | 16 µM | 2 | 1.6 | 
14 | Cc1cc(-n2c(C)ccc2C)c(C)c2c1[nH]c1ccc(Cl)cc12 [Compound 12] | 14 µM | 1.09 | 0.9 | 
15 | Cc1cc(-n2ccc(CN(C)C)c2)c(C)c2c1[nH]c1ccc(Cl)cc12 [Compound 6] | 12.7 µM | 1 | 0.8 | 
16 | Cc1cc(-n2cccc2)c(C)c2c1[nH]c1ccc(O)cc12 [Compound 11] | > 25 µM | 1.3 | 1.5 | 
17 | CCOC(=O)Oc1ccc2[nH]c3c(C)cc(-n4cccc4)c(C)c3c2c1 [Compound 10] | 25 µM | 1.1 | 1.7 | 
18 | C/C(=C\c1csc(C)n1)[C@@H]1C[C@@H]2O[C@]2(C)CCC[C@H](C)[C@H](O)[C@@H](C)C(=O)C(C)(C)[C@@H](O)CC(=O)O1 [Epo-B, epothilone-B, reference compound] |  |  |  | fold reduction of GI50 by addition of 12 μM Carba1 (HeLa cells; HeLa cells, 72 h): 4.4 fold; GI50 (HeLa cells; [2]): 0.0005 ± 3e-05 µM

— paper PMC12571071, “Preventing neuropathy and improving anticancer chemotherapy with a carbazole-based compound” (Science Advances, 2025)
